This is an account of results in article PMC6815936, “A Pan-Cyclophilin Inhibitor, CRV431, Decreases Fibrosis and Tumor Development in Chronic Liver Disease Models” (The Journal of Pharmacology and Experimental Therapeutics, 2019).

Data set [1] deals with Jurkat activation (NFAT and IL-2 luciferase reporters). In words: Jurkat NFAT and IL-2 luciferase reporter assays taken together. Format: cell-based, human. The protocol: The luciferase reporter assays employed Jurkat cells stably transfected with gene constructs consisting of a luciferase gene plus human nuclear factor of activated T cells (NFAT) or interleukin-2 (IL-2) promoter elements (J1621 and J1651; Promega). The NFAT construct contained a DNA binding site only for NFAT, whereas the IL-2 construct contained binding sites for NFAT, nuclear factor κ-light-chain-enhancer of activated B cells, and activating protein-1 transcription factors. Cells were cultured in 96-well plates at 100,000 cells/well in RPMI 1640 medium (11875-093; Thermo Fisher) supplemented with 5% FBS (12483020; Thermo Fisher). Cells were activated either by precoating high protein-binding plates with 3 µg/ml anti-CD3 (UCHT clone) and anti-CD28 (CD28.2 clone) (BioLegend LEAF antibodies) or by adding phorbol myristate acetate (PMA; P8139; Sigma-Aldrich) to 15 ng/ml and A23187 ionophore (C7522; Sigma-Aldrich) to 0.75 µM. […] Cells were harvested after 18 hours of incubation, and luciferase was quantified with Promega Bio-Glo reagent (G7940; Promega) and measurement with a luminescence plate reader. Data were normalized to DMSO controls (100% stimulation) and to wells without antibody or PMA plus A23187 stimulation.

A further data set relates to six human cell types. In words: Cytotoxicity analysis, resazurin viability assay. The protocol:
CRV431 cytotoxicity was evaluated in cell culture with six human cell types: Jurkat E6.1 lymphocyte cell line (88042803, person; Sigma-Aldrich), HepaRG hepatocyte cell line (HPRGC10, person; Life Technologies), primary renal epithelial cells (CC-2556, unknown gender; Lonza), primary dermal fibroblasts (CC-2511, person; Lonza), primary bronchial smooth muscle cells (CC-2576, person; Lonza), and primary umbilical vein endothelial cells (CC-2519, person; Lonza). Jurkat cells (suspension cell type) were plated at 35,000 cells/well in 96-well plates. All other cell types (adherent cell types) were plated 2500–10,000 cells/well (adherent cell types) in GelCol bovine collagen-coated (5167; Advanced Biomatrix) 96-well Nunc Edge 2.0 evaporation barrier plates (14387223; Thermo Scientific). Cell culture medium and culture conditions followed suppliers’ recommendations. […] Cell viability was assessed at the end of the 3-day culture period using the In Vitro Toxicology Assay (Tox8-1KT; Sigma-Aldrich). In this assay the oxidoreduction indicator dye, resazurin, is colorometrically converted in proportion to the number of viable cells and measured by absorbance or fluorescence. Fluorescence was measured (excitation 540 nm; emission 590 nm) with a BMG Polarstar Galaxy Microplate Reader.

Like-named read-outs stand apart in the source and are kept apart here. Square brackets hold non-standard residues; d marks the D form. Peptide text beside a SMILES is read from it. NMeThr(4R-Me,4-(CH2)6NHAc) = CN[C@H](C(=O)O)[C@H](O)[C@H](C)CCCCCCNC(C)=O; NMeL = CN[C@@H](CC(C)C)C(=O)O; NMeV = CN[C@H](C(=O)O)C(C)C; dNMeA = CN[C@H](C)C(=O)O; Abu = CC[C@H](N)C(=O)O

As for `CC[C@@H]1NC(=O)[C@H]([C@H](O)[C@H](C)CCCCCCNC(C)=O)N(C)C(=O)[C@H](C(C)C)N(C)C(=O)[C@H](CC(C)C)N(C)C(=O)[C@H](CC(C)C)N(C)C(=O)[C@@H](C)NC(=O)[C@H](C)NC(=O)[C@H](CC(C)C)N(C)C(=O)[C@H](C(C)C)NC(=O)[C@H](CC(C)C)N(C)C(=O)[C@@H](C)N(C)C1=O` [CRV431] (cyclo(A[dA][NMeL][NMeL][NMeV][NMeThr(4R-Me,4-(CH2)6NHAc)][Abu][dNMeA][NMeL]V[NMeL])), in data set [1] (CRV431 tested up to 20 µM), the “suppression of Jurkat activation” value was “not able to completely suppress activation”. The “immunosuppression potency relative to CsA levels” value in data set [1] (from the multiple in vitro immunosuppression assays) is given as no more than 3%. Further, the IC50 in data set [1] (range over both reporter lines and both stimulations, nonlinear regression, read-out: IC50 values, Jurkat activation) was 205 to 311 nM; in data set [1] (read-out: estimates of 50% inhibition derived directly from the graphs, range over Jurkat reporter assays), 340 to 500 nM. The CC50 in the data set on six human cell types was 23600 nM. In the data set with six human cell types (at the highest concentrations tested (up to 80 µM), 3 days), this compound displayed a lethality of 100%.
